Where two headings read alike, the source gives them in different places. Peptide text beside a SMILES is read from it.
Key:
[1] = test system: HIV-1; conditions: 100 μM, HUT78 cells; for p24 / reduction (%): Experiment 6, Day 7 HIV-1; for HIV-1 infection, result in words: summary of Experiment 6
Procedure: In experiment 6 (Table 7 and FIG. 1), approximately 200,000 HUT78 cells were infected with HIV-1 at 25 TCID50 to test the inhibitory effect of GPG-NH2, RQG-NH2, KQG-NH2, ALG-NH2, GVG-NH2, VGG-NH2, ASG-NH2, SLG-NH2, and SPT-NH2. The HUT cells were resuspended in lml of RPMI 1640 medium supplemented with 10% (v/v) heat-inactivated fetal bovine serum (FBS, GIBCO), penicillin (100 u/ml), streptomycin (100 u/ml) and Polybrene (Sigma, 2 μg/ml) with or without the presence of the different small peptides (100 μM) mentioned above. Thereafter, the HIV-1 virus was added at 25 TCID50 in a volume of 20 μl. Cells were incubated with the virus at 37° C. for one hour and, subsequently, the cells were pelleted at 170×g for seven minutes. The cells were then washed three times in RPMI medium without peptides at room temperature by cell sedimentation at 170×g for seven minutes, as above. After the final wash, the cells were resuspended in RPMI culture medium containing the peptides in 24-well plate (Costar corporation) and were kept at 37° C. in 5% CO2 with humidity. Culture supernatants were collected when medium was changed at day 4, 7, and 11 post infection and viral p24 production was monitored by using an HIV-1 p24 ELISA kit (Abbott Laboratories, North Chicago, USA).

[2] = test system: HIV-1 SF-2 virus; assay: electron microscopy of HIV-1 particles from infected HUT78 cells; format: cell-based; conditions: 0.5μM; cells fixed day 14
Procedure: In this set of experiments, HUT78 cells were infected with HIV-1 SF-2 virus at 300TCID50 for 1 hr at 37° C. Subsequently, the infected cells were washed and pelleted 3 times, as described in Example 2. Thereafter, the cells were resuspended in RPMI culture medium supplemented with 10% FBS, antibiotics (100 u/ml) and polybrene (3.2 μg/ml). GPG-NH2 was then added into the cell cultures 3, 5 or 7 days post infection at concentration of 1 μM or 10 μM. A control sample was administered 0.5μM Ritonavir (a protease inhibitor).
The cells were cultured until day 14, at which point, the cells were fixed in 2.5% glutaraldehyde by conventional means. The fixed cells were then postfixed in 1% OSO4 and were dehydrated, embedded with epoxy resins, and the blocks were allowed to polymerize. Epon sections of virus infected cells were made approximately 60-80 nm thin in order to accommodate the width of the nucleocapsid. The sections were mounted to grids stained with 1.0% uranyl acetate and were analyzed in a Zeiss CEM 902 microscope at an accelerating voltage of 80 kV. The microscope was equipped with a spectrometer to improve image quality and a liquid nitrogen cooling trap was used to reduce beam damage. The grids having sections of control and GPG-NH2 incubated cells were examined in several blind studies.

[3] = test system: HIV-1 isolate p7300 (low PI); assay: resistant HIV-1 isolates in PBMC, p24 ELISA; format: cell-based; conditions: Rito 0.1 μM, 14 days post infection
[4] = test system: HIV-1 isolate p7141 (high PI); assay: resistant HIV-1 isolates in PBMC, p24 ELISA; format: cell-based; conditions: Rito 0.1 μM, 14 days post infection

Structure (SMILES) | p24 [1] | reduction (%) [1] | HIV-1 infection, result in words [1] | other results
NCCCC[C@H](N)C(=O)N[C@@H](CCC(N)=O)C(=O)NCC(N)=O [KQG-NH2, lysyl-glutaminyl-glycine amide] (H-Lys-Gln-Gly-NH2) | 154 pg/mL | ~100% | inhibited and/or prevented HIV-1 infection | reduction (%) ([1]; listed as KQG—NH2): 99%
CC(C)C[C@H](NC(=O)[C@@H](N)CO)C(=O)NCC(N)=O [SLG-NH2, seryl-leucyl-glycine amide] (H-Ser-Leu-Gly-NH2) | 114 pg/mL | ~100% | inhibited and/or prevented HIV-1 infection | reduction (%) ([1]; listed as SLG—NH2): 99%
C[C@H](N)C(=O)N[C@@H](CO)C(=O)NCC(N)=O [ASG-NH2, alanyl-seryl-glycine amide] (H-Ala-Ser-Gly-NH2) | 15000 pg/mL | 25% |  | 
C[C@@H](O)[C@H](NC(=O)[C@@H]1CCCN1C(=O)[C@@H](N)CO)C(N)=O [SPT-NH2, seryl-prolyl-threonine amide] (H-Ser-Pro-Thr-NH2) | 15000 pg/mL | 25% |  | 
CC(C)c1nc(CN(C)C(=O)N[C@H](C(=O)N[C@@H](Cc2ccccc2)C[C@H](O)[C@H](Cc2ccccc2)NC(=O)OCc2cncs2)C(C)C)cs1 [Ritonavir, reference compound] |  |  |  | viral particle structure, electron microscopy [2]: malformed structures that did not have a discemable nucleocapsid; % reduction [3]: (56%); HIV-1 p24 [3]: 64000 pg/mL; % reduction [4]: (14%); HIV-1 p24 [4]: 98000 pg/mL
CC(C)[C@H](NC(=O)CN)C(=O)NCC(N)=O [GVG-NH2, glycyl-valyl-glycine amide] (H-Gly-Val-Gly-NH2) | 15000 pg/mL | 25% |  | 
N=C(N)NCCC[C@H](N)C(=O)N[C@@H](CCC(N)=O)C(=O)NCC(N)=O [RQG-NH2, arginyl-glutaminyl-glycine amide] (H-Arg-Gln-Gly-NH2) | 113 pg/mL | ~100% | inhibited and/or prevented HIV-1 infection | reduction (%) ([1]; listed as RQG—NH2): 99%
CC(C)C[C@H](NC(=O)[C@H](C)N)C(=O)NCC(N)=O [ALG-NH2, alanyl-leucyl-glycine amide] (H-Ala-Leu-Gly-NH2) | 42 pg/mL | ~100% | inhibited and/or prevented HIV-1 infection | 
